Laboratory results taken from the NIST ThermoML archive (doi:10.1021/je900596d).
Numbers after ± are expanded uncertainties.

Conditions: 357.06 K, Fluid (supercritical or subcritical phases), Vibrating tube method

For `FC(F)=C(F)C(F)(F)F` [hexafluoropropene], the mass density (415.8 kPa) was 21.9 ± 0.05 kg/m3, the mass density (430.3 kPa) was 22.74 ± 0.05 kg/m3 and the mass density (445 kPa) was 23.53 ± 0.05 kg/m3. The mass density (459.8 kPa) was 24.37 ± 0.05 kg/m3, the mass density (474.6 kPa) was 25.15 ± 0.05 kg/m3 and the mass density (489.6 kPa) was 26 ± 0.05 kg/m3. The mass density (504.5 kPa) was 26.95 ± 0.05 kg/m3, the mass density (519.5 kPa) was 27.84 ± 0.05 kg/m3 and the mass density (534.4 kPa) was 28.66 ± 0.05 kg/m3. For the same molecule, the mass density (549.4 kPa) was 29.55 ± 0.05 kg/m3, the mass density (564.2 kPa) was 30.41 ± 0.05 kg/m3 and the mass density (579 kPa) was 31.28 ± 0.05 kg/m3. The mass density (593.8 kPa) was 32.12 ± 0.06 kg/m3, the mass density (604.8 kPa) was 32.81 ± 0.06 kg/m3 and the mass density (619.6 kPa) was 33.65 ± 0.06 kg/m3. It also gave a mass density (634.3 kPa) of 34.49 ± 0.06 kg/m3, a mass density (648.9 kPa) of 35.43 ± 0.06 kg/m3 and a mass density (663.4 kPa) of 36.27 ± 0.06 kg/m3. For the same molecule, the mass density (677.9 kPa) was 37.14 ± 0.06 kg/m3, the mass density (692.4 kPa) was 37.98 ± 0.06 kg/m3 and the mass density (706.7 kPa) was 38.87 ± 0.06 kg/m3. The mass density (721 kPa) was 39.69 ± 0.06 kg/m3, the mass density (735.2 kPa) was 40.55 ± 0.07 kg/m3 and the mass density (749.2 kPa) was 41.45 ± 0.07 kg/m3. For the same molecule, the mass density (763.3 kPa) was 42.35 ± 0.07 kg/m3, the mass density (777.3 kPa) was 43.14 ± 0.07 kg/m3 and the mass density (791.2 kPa) was 44.03 ± 0.07 kg/m3. The mass density (805.1 kPa) was 44.87 ± 0.07 kg/m3, the mass density (818.9 kPa) was 45.78 ± 0.07 kg/m3 and the mass density (832.6 kPa) was 46.65 ± 0.07 kg/m3. For the same molecule, the mass density (846.3 kPa) was 47.44 ± 0.07 kg/m3, the mass density (859.8 kPa) was 48.34 ± 0.08 kg/m3 and the mass density (873.5 kPa) was 49.21 ± 0.08 kg/m3. For the same molecule, the mass density (887 kPa) was 50.07 ± 0.08 kg/m3, the mass density (900.7 kPa) was 50.9 ± 0.08 kg/m3 and the mass density (927.4 kPa) was 52.68 ± 0.08 kg/m3. It also gave a mass density (940.7 kPa) of 53.53 ± 0.08 kg/m3, a mass density (953.9 kPa) of 54.39 ± 0.08 kg/m3 and a mass density (966.4 kPa) of 55.2 ± 0.08 kg/m3. The mass density (980.4 kPa) was 56.19 ± 0.09 kg/m3, the mass density (992.5 kPa) was 56.92 ± 0.09 kg/m3 and the mass density (1019.3 kPa) was 58.76 ± 0.09 kg/m3. It also gave a mass density (1047.3 kPa) of 60.62 ± 0.09 kg/m3, a mass density (1075 kPa) of 62.53 ± 0.09 kg/m3 and a mass density (1101.6 kPa) of 64.29 ± 0.1 kg/m3. For the same molecule, the mass density (1126.7 kPa) was 66.03 ± 0.1 kg/m3, the mass density (1151 kPa) was 67.74 ± 0.1 kg/m3 and the mass density (1176.3 kPa) was 69.58 ± 0.1 kg/m3. For the same molecule, the mass density (1201.9 kPa) was 71.4 ± 0.1 kg/m3, the mass density (1228.4 kPa) was 73.29 ± 0.11 kg/m3 and the mass density (1259 kPa) was 75.66 ± 0.11 kg/m3. It also gave a mass density (1289.5 kPa) of 77.81 ± 0.11 kg/m3, a mass density (1322.3 kPa) of 80.32 ± 0.12 kg/m3 and a mass density (1338.6 kPa) of 81.39 ± 0.12 kg/m3. For the same molecule, the mass density (1356.1 kPa) was 82.86 ± 0.12 kg/m3, the mass density (1372.3 kPa) was 84.1 ± 0.12 kg/m3 and the mass density (1389.3 kPa) was 85.41 ± 0.12 kg/m3. It also gave a mass density (1417.8 kPa) of 87.61 ± 0.13 kg/m3, a mass density (1448.6 kPa) of 89.98 ± 0.13 kg/m3 and a mass density (1476.5 kPa) of 92.14 ± 0.14 kg/m3. It also gave a mass density (1508.7 kPa) of 94.88 ± 0.14 kg/m3, a mass density (1525.6 kPa) of 96.25 ± 0.14 kg/m3 and a mass density (1543.7 kPa) of 97.72 ± 0.14 kg/m3. The mass density (1568 kPa) was 99.77 ± 0.15 kg/m3, the mass density (1585.8 kPa) was 101.24 ± 0.15 kg/m3 and the mass density (1616.4 kPa) was 103.7 ± 0.15 kg/m3. For the same molecule, the mass density (1633.9 kPa) was 105.22 ± 0.16 kg/m3.
